Reference: ChEMBL document CHEMBL5500360, “Discovery of N-(4-((6-(3,5- Dimethoxyphenyl)-9H-purine derivatives as irreversible covalent FGFR inhibitors” (Eur J Med Chem, 2024)

Assays:
in vitro = conditions: human
Description: Cytotoxicity against HUVEC cells assessed as inhibition of cell growth incubated for 72 hrs by MTT assay

KYSE-150 cell line = experiment: cells; conditions: Homo sapiens, KYSE-150, 72 h
Description: Antiproliferative activity against human KYSE-150 cells assessed as inhibition of cell growth incubated for 72 hrs by MTT assay

HepG2 = experiment: cells; conditions: Homo sapiens, HepG2, 72 h
MDA-MB-231 = experiment: cells; conditions: Homo sapiens, MDA-MB-231, 72 h
MDA-MB-435 = experiment: cells; conditions: Homo sapiens, MDA-MB-435, 72 h
Description: Antiproliferative activity against human MDA-MB-435 cells assessed as inhibition of cell growth incubated for 72 hrs by MTT assay

[1] = Metabolic stability in human liver microsomes assessed as parent compound remaining at 1 uM measured after 5 mins by LC-MS/MS analysis; format: ADME, Microsome; conditions: read-out: Stability
[2] = Metabolic stability in rat liver microsomes assessed as half-life at 1 uM incubated for 45 mins by LC-MS/MS analysis; format: ADME, Microsome
[3] = Metabolic stability in mouse liver microsomes assessed as parent compound remaining at 1 uM measured after 5 mins by LC-MS/MS analysis; format: ADME, Microsome; conditions: read-out: Stability
[4] = Metabolic stability in rat liver microsomes assessed as parent compound remaining at 1 uM measured after 15 mins by LC-MS/MS analysis; format: ADME, Microsome; conditions: read-out: Stability
[5] = Metabolic stability in mouse liver microsomes assessed as parent compound remaining at 1 uM measured after 30 mins by LC-MS/MS analysis; format: ADME, Microsome; conditions: read-out: Stability
[6] = Metabolic stability in rat liver microsomes assessed as parent compound remaining at 1 uM measured after 5 mins by LC-MS/MS analysis; format: ADME, Microsome; conditions: read-out: Stability
[7] = Metabolic stability in rat liver microsomes assessed as parent compound remaining at 1 uM measured after 30 mins by LC-MS/MS analysis; format: ADME, Microsome; conditions: read-out: Stability
[8] = Metabolic stability in rat liver microsomes assessed as intrinsic clearance at 1 uM incubated for 45 mins by LC-MS/MS analysis; format: ADME, Microsome; conditions: read-out: CLH
[9] = Metabolic stability in mouse liver microsomes assessed as half-life at 1 uM incubated for 45 mins by LC-MS/MS analysis; format: ADME, Microsome
[10] = Metabolic stability in mouse liver microsomes assessed as parent compound remaining at 1 uM measured after 45 mins by LC-MS/MS analysis; format: ADME, Microsome; conditions: read-out: Stability
[11] = Metabolic stability in human liver microsomes assessed as parent compound remaining at 1 uM measured after 15 mins by LC-MS/MS analysis; format: ADME, Microsome; conditions: read-out: Stability
[12] = Metabolic stability in rat liver microsomes assessed as parent compound remaining at 1 uM measured after 45 mins by LC-MS/MS analysis; format: ADME, Microsome; conditions: read-out: Stability
[13] = Metabolic stability in mouse liver microsomes assessed as parent compound remaining at 1 uM measured after 15 mins by LC-MS/MS analysis; format: ADME, Microsome; conditions: read-out: Stability
[14] = Metabolic stability in human liver microsomes assessed as parent compound remaining at 1 uM measured after 45 mins by LC-MS/MS analysis; format: ADME, Microsome; conditions: read-out: Stability
[15] = Metabolic stability in mouse liver microsomes assessed as intrinsic clearance at 1 uM incubated for 45 mins by LC-MS/MS analysis; format: ADME, Microsome; conditions: read-out: CLH
[16] = Metabolic stability in human liver microsomes assessed as half-life at 1 uM incubated for 45 mins by LC-MS/MS analysis; format: ADME, Microsome
[17] = Metabolic stability in human liver microsomes assessed as intrinsic clearance at 1 uM incubated for 45 mins by LC-MS/MS analysis; format: ADME, Microsome; conditions: read-out: CLH
[18] = Metabolic stability in human liver microsomes assessed as parent compound remaining at 1 uM measured after 30 mins by LC-MS/MS analysis; format: ADME, Microsome; conditions: read-out: Stability

SMILES | IC50 at 72 h (in vitro; HUVEC cells) | IC50 (KYSE-150 cell line) | IC50 (HepG2) | IC50 (MDA-MB-231) | IC50 (MDA-MB-435) | also measured
C=CC(=O)Nc1cc(Cn2ccc3ccc(Br)cc32)ccc1F | 76.5 µM | 7.26 µM | 11.1 µM | 7.21 µM | 24.6 µM | 
C=CC(=O)Nc1cc(Cn2nnc3c(C(=O)OC)cccc32)ccc1F | 64.2 µM | 13.6 µM | 30.5 µM | 20.3 µM | 32.5 µM | 
C=CC(=O)Nc1cc(Cn2ccc3c(Cl)ccnc32)ccc1F | 54.4 µM | 23 µM | 23.7 µM | 27.2 µM | 27.2 µM | 
C=CC(=O)Nc1ccc(Cn2cnc3c(Cl)ncnc32)cc1 | 50.5 µM | 2.95 µM | 2.81 µM | 2.64 µM | 5.93 µM | 
C=CC(=O)Nc1ccc(C(=O)n2ncc3ccc(Br)cc32)cc1 | 81 µM | 6.86 µM | 51.1 µM | 40 µM | 3.3 µM | 
O=C(c1ccc(F)cc1)C1CCN(CCn2c(=O)[nH]c3ccccc3c2=O)CC1 [KETANSERIN] |  |  |  |  |  | remaining at 5 min, 1 µM [1]: 84.7%; half-life at 1 µM [2]: 13.2 min; remaining at 5 min, 1 µM [3]: 70.3%; remaining at 0.25 h, 1 µM [4]: 48.5%; remaining at 0.5 h, 1 µM [5]: 18.3%; remaining at 5 min, 1 µM [6]: 76.3%; remaining at 0.5 h, 1 µM [7]: 24.5%; CLint scaled at 1 µM [8]: 188 mL/min/kg; half-life at 1 µM [9]: 9.35 min; remaining at 0.75 h, 1 µM [10]: 8.57%; remaining at 0.25 h, 1 µM [11]: 68.5%; remaining at 0.75 h, 1 µM [12]: 14.1%; remaining at 0.25 h, 1 µM [13]: 38.3%; remaining at 0.75 h, 1 µM [14]: 45.9%; CLint scaled at 1 µM [15]: 584 mL/min/kg; half-life at 1 µM [16]: 28.6 min; CLint scaled at 1 µM [17]: 60.8 mL/min/kg; remaining at 0.5 h, 1 µM [18]: 55.1%
C=C(C)C(=O)Nc1ccc(Cn2cnc3c(Cl)ncnc32)cc1 | 80.9 µM | 26 µM | 48.4 µM | 66.3 µM | 29.4 µM | 
C=CC(=O)N1CC[C@@H](n2nc(C#Cc3cc(OC)cc(OC)c3)c3c(N)ncnc32)C1 |  | 17.6 µM |  |  | 16.3 µM | IC50 at 72 h (in vitro; huvec): 63.6 µM
O=C(Nc1ccc(Cn2cnc3c(Cl)ncnc32)cc1)C1CC1 | 81.2 µM | 10.6 µM | 27 µM | 9.64 µM | 31.6 µM | 
C=CC(=O)Nc1ccc(C(=O)n2ccc3c(Cl)ncnc32)cc1 | 56.1 µM | 10.1 µM | 40.1 µM | 29.4 µM | 10 µM | 
C=CC(=O)Nc1ccc(C(=O)n2ccc3cc(Cl)cnc32)cc1 | 80.4 µM | 10.8 µM | 45 µM | 34.8 µM | 18.5 µM | 
CCC(=O)Nc1ccc(Cn2cnc3c(Cl)ncnc32)cc1 | 80.1 µM | 13.3 µM | 28.5 µM | 7.93 µM | 30.1 µM | 
C=CC(=O)Nc1cc(Cn2ncc3ccc(Br)cc32)ccc1F | 69.7 µM | 9.84 µM | 16.4 µM | 29.7 µM | 6.3 µM | 
C=CC(=O)Nc1ccc(Cn2cnc3c(-c4cccs4)ncnc32)cc1 | 77.2 µM | 12.2 µM | 11.1 µM | 6.18 µM | 15.7 µM | 
CC(C)=CC(=O)Nc1ccc(Cn2cnc3c(Cl)ncnc32)cc1 | 77.1 µM | 13.3 µM | 19.1 µM | 7.36 µM | 30.1 µM | 
O=C(CCl)Nc1ccc(Cn2cnc3c(Cl)ncnc32)cc1 | 64 µM | 12.3 µM | 27.3 µM | 21.2 µM | 26.4 µM | 
C=CC(=O)Nc1cc(Cn2ccc3cc(Br)cnc32)ccc1F | 75.5 µM | 8.23 µM | 28.1 µM | 37.4 µM | 27.4 µM | 

SMILES | IC50 at 72 h (in vitro; HUVEC cells) | IC50 (KYSE-150 cell line) | IC50 (HepG2) | IC50 (MDA-MB-231) | IC50 (MDA-MB-435) | also measured
C=CC(=O)Nc1cc(Cn2nnc3c(C(=O)NCC4CC(F)(F)C4)cccc32)ccc1F | 46.2 µM | 6.86 µM | 29.6 µM | 10 µM | 27 µM | 
C=CC(=O)Nc1cc(Cn2ncc3ccncc32)ccc1F | 54.6 µM | 5.21 µM | 29.1 µM | 9.15 µM | 24.1 µM | 
C=CC(=O)Nc1cc(Cn2ccc3c(Cl)ncnc32)ccc1F | 60.3 µM | 7.68 µM | 26.8 µM | 29.3 µM | 27.1 µM | 
C=CC(=O)Nc1ccc(Cn2cnc3c(-c4ccccc4)ncnc32)cc1 | 81.3 µM | 11.2 µM | 9.34 µM | 7.22 µM | 12.8 µM | 
C=CC(=O)Nc1cc(Cn2cnc3c(Cl)ncnc32)ccc1F | 71.4 µM | 3.78 µM | 15.7 µM | 10.1 µM | 5.67 µM | 
C=CC(=O)Nc1ccc(C(=O)n2ncc3cccnc32)cc1 | 82.2 µM | 9.83 µM | 42.6 µM | 26.7 µM | 33.8 µM | 
C=CC(=O)Nc1ccc(Cn2cnc3c(-c4ccc(F)c(F)c4)ncnc32)cc1 | 75.2 µM | 14.3 µM | 8.36 µM | 5.64 µM | 13.2 µM | 
C=CC(=O)Nc1cc(Cn2nnc3c(C(=O)NCC(F)F)cccc32)ccc1F | 50.9 µM | 16.2 µM | 19.9 µM | 29.2 µM | 27.9 µM | 
C=CC(=O)Nc1ccc(Cn2cnc3c(-c4cc5ccccc5o4)ncnc32)cc1 | 79.2 µM | 13.5 µM | 12.2 µM | 6.53 µM | 20.1 µM | 
C=CC(=O)Nc1cc(Cn2cnc3ccc(Cl)nc32)ccc1F | 64.5 µM | 13.8 µM | 24.7 µM | 25.8 µM | 24.3 µM | 
C=CC(=O)Nc1ccc(C(=O)n2ccc3cc(Br)cnc32)cc1 | 75.4 µM | 16.8 µM | 39.4 µM | 24.4 µM | 18.9 µM | 
C=CC(=O)Nc1ccc(Cn2cnc3c(-c4cc5ccccc5s4)ncnc32)cc1 | 79.1 µM | 8.26 µM | 9.26 µM | 13.9 µM | 11.1 µM | 
CC(Cl)C(=O)Nc1ccc(Cn2cnc3c(Cl)ncnc32)cc1 (stereo unspecified) | 81.8 µM | 9.46 µM | 17.8 µM | 9.87 µM | 32.2 µM | 
C=CC(=O)Nc1cc(Cn2ccc3ncnc(Cl)c32)ccc1F | 79.3 µM | 15.9 µM | 25.1 µM | 40.3 µM | 26.2 µM | 
CC(C)C(=O)Nc1ccc(Cn2cnc3c(Cl)ncnc32)cc1 | 79.6 µM | 18.9 µM | 27.6 µM | 7.17 µM | 29.4 µM | 
C=CC(=O)Nc1cc(Cn2cnc3cnc(Cl)nc32)ccc1F | 57.1 µM | 23.8 µM | 24.2 µM | 23.8 µM | 20.8 µM | 
